{"source": "patent EP0337167B1", "about": "“4-Aryl-4-piperidine (or pyrrolidine or hexahydroazepine) carbinols and heterocyclic analogs thereof” (THE DU PONT MERCK PHARMACEUTICAL COMPANY, priority 1988, dated 1989)", "key": {"[1]": {"tested_on": "Male mice", "test": "Anorexia test from CNS screen (consumption of sweetened condensed milk spots)", "assay_type": "in vivo", "settings": "Mus musculus; fasted male mice, oral doses, 0.5 h after administration, 10 min access to milk; read-out: ED₅₀ for Anorexia", "procedure": "Male mice weighing 18-25 grams and fasted over-night for 17-21 h were used in these studies. At 0.5 h after administration of graded oral doses of compound prepared in aqueous Methocel® (methylcellulose, viscosity 100 mPa·s (CPS), grade A15C, Dow Chemical Co.) and dosed at 0.1 ml per 10 grams of body weight, each mouse was transferred to an individual, clear, Lucite® compartment (13.3 cm x 12.7 cm x 12.7 cm) with a wire mesh floor having 0.64 cm x 0.64 cm openings. Five compartments were linearly arranged in each cage unit. Inside each compartment was a section of a black Lucite® bar (13 cm x 1.2 cm x 1.2 cm), in the top of which were ten spot depressions (0.8 cm diameter), each containing 0.05 ml of 50% sweetened condensed milk. Ten (10) minutes later the mice were removed from to the compartments and the number of milk spots consumed by each mouse was counted. Fractions of spots consumed were also estimated and counted. Data were expressed as % decrease from control. ED₅₀ values were estimated using linear regression analysis."}, "[2]": {"tested_on": "Male CF1 mice", "test": "Mouse antiphenylquinone writhing (PQW) test", "assay_type": "in vivo", "settings": "Table 3; for ED50: Mus musculus, 0.5 h, phenylquinone 1.25 mg/kg i.p., observation beginning 30 min after injection of test compound", "procedure": "The anti-pheylquinone writhing (PQW) test modified from the methods of Siegmund et al. (Proc. Soc. Exp. Biol. Med. 95: 729-731, 1957) and Blumberg et al. (Proc. Exp. Biol. Med. 118: 763-767, 1965) was used to assess analgesia in mice. Male CF1 mice (Charles River Breeding Laboratories, Wilmington, MA), fasted for 16-22 h and weighing 18-23 g, were injected with randomized and coded doses of test compounds, then challenged with 1.25 mg/kg i.p. phenyl-p-benzoquinone (phenylquinone) 5 min prior to the specified observation time. The phenylquinone solution (0.1 mg/ml in 5% aqueous ethanol) was prepared daily and stored in foil-wrapped amber bottles to limit degradation. Mice were observed 10 min for the presence or absence of the characteristic abdominal constriction and stretching response beginning 30 min after injection of the test compound. Analgetic activity was calculated as the percentage of mice failing to respond to the phenylquinone challenge dose. […] Median effective doses (ED50's) and 95% confidence limits were determined numerically by the methods of Thompson (Bacteriological Rev. 11: 115-145, 1947), and Litchfield and Wilcoxon (J. Pharmacol. Exp. Ther. 96: 99.113, 1949).\nThe data shown in Table show the PQW ED₅₀ values for the compounds of the aforesaid examples.\nTable 4 illustrates that the 3° carbinols within the scope of U.S. 4,485,109 have utility as analgesic agents."}, "[3]": {"tested_on": "Male CF mice", "test": "Antagonism of tetrabenazine-induced depression (exploratory loss and ptosis) in mice", "assay_type": "in vivo", "settings": "Mus musculus, po, 1 h, orally, one hour post-drug, tetrabenazine methane sulfonate 52 mg/kg i.p.", "description": "The prevention of tetrabenazine-induced sedation and depression in mice is a standard procedure used to detect and compare antidepressant compounds. The activity of antidepressant compounds in this procedure correlates well with human efficacy. (Barnett, et al., Int. J. Neuropharmac. 8: 73-79, 1969, and Vernier, et al., \"The Pharmacodynamics of Amitriptyline\" in Psychsomatic Medicine (Nodine & Moyer, editors) pp. 683-690, 1962).\nMale CF mice (Charles River Breeding Laboratories, Wilmingon, MA), fasted for 16-22 hours and weighing 18-25 g, were injected with randomized and coded does of test compounds, then challenged with 52 mg/kg i.p. tetrabenazine methane sulfonate 30 minutes prior to the specified observation time. The tetrabenazine methane sulfonate solution (5.2 mg/ml in distilled water) was prepared daily and stored in foil-wrapped amber bottles to limit degradation. […] Exploratory loss was defined as failing to move to the perimeter of a 12.7 cm (5 inch) (12.7 cm) circle within 15 seconds of being placed at the center of the circle. Ptosis was defined as both eyelids closed 50% or more compared to normal. Antidepressant activity was calculated as the percentage of mice failing to respond to the tetrabenazine challenge dose. […] Median effective does (ED₅₀'s) were estimated using the Moving Average method of Thompson (Bacteriological Rev. 11: 115-145, 1947).\nThe data in Table 5 show ED₅₀ values for the compounds of the aforesaid examples."}, "[4]": {"settings": "literature statement (A. L. Morrison et al., J.Chem. Soc., 1467, 1950); cited from earlier work"}, "[5]": {"settings": "po, p.o., read-out: Mouse PQW ED₅₀ (Mg/Kg) P.O"}, "[6]": {"settings": "sc, s.c., read-out: Mouse PQW ED₅₀ (Mg/Kg) S.C"}, "[7]": {"settings": "read-out: Oral ED₅₀ (mg/kg) for Prevention of Ptosis"}}, "note": "Like-named read-outs stand apart in the source and are kept apart here."}
{"molecule": "CC(O)C1(c2cccc(Cl)c2)CCN(C)CC1", "note": "(stereo not drawn) [Example 1, 4-(3'-Chlorophenyl)-α,1-dimethyl-4-piperidinemethanol]", "values": [{"measurement": "ED50", "setting": "[1]", "result": 20, "unit": "mg/kg"}, {"measurement": "ED50", "setting": "[2]; [5]", "result": 19, "unit": "mg/kg"}, {"measurement": "ED50", "setting": "[2]; [6]", "result": 8.1, "unit": "mg/kg"}, {"measurement": "ED50", "setting": "[3]; read-out: Oral ED₅₀ (mg/kg) for Prevention of Exploratory Loss", "result": 0.92, "unit": "mg/kg"}, {"measurement": "ED50", "setting": "[3]; [7]", "result": 0.74, "unit": "mg/kg"}]}
{"molecule": "CC(O)C1(c2ccccc2)CCN(C)CC1", "note": "(stereo not shown) [Example 3, 4-phenyl-1-methyl-4-(1-hydroxyethyl)piperidine]", "values": [{"measurement": "analgesic activity compared with the parent ketones", "setting": "[4]", "result": "much less active as analgesics than the parent ketones"}, {"measurement": "ED50", "setting": "[2]; [5]", "result": 38, "unit": "mg/kg"}, {"measurement": "ED50", "setting": "[2]; [6]", "result": 19, "unit": "mg/kg"}]}
{"molecule": "CC(O)C1(c2ccc(C(F)(F)F)cc2)CCN(C)CC1", "note": "(stereo not drawn) [Example 16, 4(4'-Trifluoromethylphenyl)-α-1-dimethylpiperidinemethanol]", "values": [{"measurement": "ED50", "setting": "[1]", "result": 22, "unit": "mg/kg"}, {"measurement": "ED50", "setting": "[2]; [5]", "result": "> 81", "unit": "mg/kg"}, {"measurement": "ED50", "setting": "[2]; [6]", "result": "> 81", "unit": "mg/kg"}, {"measurement": "Mouse PQW remark", "setting": "[2]; remark beside S.C and P.O values", "result": "Inactive"}, {"measurement": "ED50", "setting": "[3]; [7]", "result": 28, "unit": "mg/kg"}]}
